From paper PMC12454871, “Embedding a feruloyl esterase active site into a thermophilic endoxylanase scaffold for the degradation of feruloylated xylans” (Computational and Structural Biotechnology Journal, 2025)

Experiments:
[1] = target: T1, Xyn11 (Pseudothermotoga thermarum, UniProt F7YXD6, L292S/K296H, form not given); test: X-ray crystallography, […] Å; type: binding; settings: native xylanase active site (E144/E251); trapped expression inducer
T1 construct: gene Theth_1636; GH10 single-domain TIM barrel, 342 residues; all rows are the designed double mutant Xyn11m1
T1 sequence (F7YXD6 entry or part of it L292S/K296H, form open): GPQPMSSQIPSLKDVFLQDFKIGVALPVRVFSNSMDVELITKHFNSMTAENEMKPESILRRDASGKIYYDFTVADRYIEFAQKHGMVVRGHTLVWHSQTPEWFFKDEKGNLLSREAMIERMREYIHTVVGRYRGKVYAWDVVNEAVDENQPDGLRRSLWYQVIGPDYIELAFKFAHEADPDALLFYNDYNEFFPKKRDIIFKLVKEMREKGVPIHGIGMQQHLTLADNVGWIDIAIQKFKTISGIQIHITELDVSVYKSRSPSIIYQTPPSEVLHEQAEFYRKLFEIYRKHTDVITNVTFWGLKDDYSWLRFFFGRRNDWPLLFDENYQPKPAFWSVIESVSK

[2] = target: T1, Xyn11; test: phenol red pH-indicator esterase assay, absorbance […] nm; type: biochemical; settings: pH 8.0, 90 °C, 5 mM EPPS, 50 mM NaCl; engineered Ser271-His275-Glu272 esterase site

Km [2] [µM]	SMILES	X-ray crystallography, 2.1 Å [1]
	CC(C)S[C@@H]1O[C@H](CO)[C@H](O)[C@H](O)[C@H]1O [IPTG]	E144 and E251 and includes a trapped IPTG molecule
2900 ± 200	COC(=O)/C=C/c1ccc(O)c(OC)c1 [methyl ferulate]	
